Assay results reported in patent publication US8507440B2, “Protein kinase C peptides for use in withdrawal” (The Board of Trustees of the Leland Stanford Junior …, priority 2002, dated 2013).
Ends that are not written are not given here.

Key:
isolated spinal cords = assay: slow ventral root potential (sVRP) of isolated spinal cord, naloxone-precipitated morphine withdrawal hyperresponsiveness; format: cell-based, rat; details: for sVRP area 30 minutes after naloxone / block of naloxone-precipitated withdrawal hyperresponsiveness of sVRP: morphine 200 nM then naloxone 200 nM, GF109203X 1.2 μM, Go6976 1 μM, εV1-2 2 nM; for block of naloxone-precipitated withdrawal hyperresponsiveness of sVRP: γV5-3 4 nM, Tat 2-4 nM
Text: The slow ventral root potential (sVRP) is an electrophysiolgical measurement of nociceptive-related response in the spinal cord lasting approximately 40 seconds (Yanagisawa et al., Eur. J. Pharmacol., 106:231-239 (1984); Akagi H. et al., British J. Pharmacol., 84:663-673 (1985); Otsuka M. et al., J. Physiol., 395:255-270 (1988)). It is evoked by stimulation of a lumbar dorsal root at an intensity sufficient to activate small diameter afferents that transmit nociceptive (painful) stimuli from the periphery to the spinal cord (Lozier A. P. et al., J. Neurophysiol., 74:1001-1009 (1995)). […] Thus, the sVRP is related to pain, and its exaggeration following naloxone is a manifestation of withdrawal which translates to an increase in pain sensation in vivo.
Spinal cords from 4-7 day old rats (Charles River Laboratories) were removed and arranged for electrophysiological recording of the slow ventral root potentials (sVRP) (Woodley S. J., et al., Brain Res., 559:17-21 (1991). Briefly, pups were decapitated under halothane anesthesia and the spinal cord removed to an oxygenated artificial cerebrospinal fluid solution. A suction stimulating electrode was placed on a lumbar dorsal root and a suction recording electrode on the corresponding ipsilateral ventral root. Square wave stimuli 0.2 ms in duration were administered at a constant frequency of 1/50 seconds throughout the experiment. Test agents were applied and the responses were recorded, digitized, and area under the curve measured.
After a baseline reading of the sVRP, morphine (200 nM) was applied to the isolated spinal cords. The sVRP was again recorded to characterize the response to morphine. Naloxone (200 nM) was then applied and the sVRPs recorded.
FIGS. 2A-2D show the results after application of non-specific PKC antagonist, GF109203X (1.2 μM), and of an inhibitor specific to Ca++-dependent PKC isoforms, Go6976 (1 μM).
FIGS. 3A-3B show the results after application of the εPCK antagonist (εV1-2; SEQ ID NO:1, 2 nM), conjugated to a peptide carrier (Tat; SEQ ID NO:3) and the Tat peptide alone (2 nM; SEQ ID NO:3). FIGS. 3C-3D show the results after application of γPKC (γV5-3; SEQ ID NO:2, 4 nM) conjugated to a peptide carrier (Tat; SEQ ID NO:3) and of the Tat peptide alone (4 nm; SEQ ID NO:3).

postnatal day 7 rats = assay: naloxone-precipitated morphine withdrawal, mechanical threshold and thermal paw withdrawal latency in vivo; design: species or system rat; details: for block of naloxone-precipitated morphine withdrawal allodynia and hyperalgesia: 10 μM in 5 μl intrathecally prior to morphine 1 mg/kg s.c., naloxone 0.25 mg/kg 30 min after morphine
Procedure: In vivo studies on opiate withdrawal allodynia and hyperalgesia were conducted using postnatal day 7 rats. As described in Example 2, postnatal day 7 rats were given morphine subcutaneously followed 30 minutes later by naloxone or saline. Mechanical threshold using von Frey filaments to produce the flexion withdrawal response of the hind paw and thermal stimulation to measure the paw withdrawal latency were measured as described in Example 2.
FIG. 5A illustrates a treatment protocol where rat pups were given a PKC antagonist intrathecally (e.g., directly into the cerebrospinal fluid surrounding the spinal cord) prior to subcutaneous morphine delivery. Thirty minutes after morphine delivery, naloxone was administered, followed by mechanical allodynia and thermal hyperalgesia testing (as described in Example 2).
Postnatal day 7 Sprague-Dawley rats (Charles River Laboratories) of both sexes were used. For all behavioural experiments rats were maintained at nesting temperature with overhead heatlamps.
To measure mechanical thresholds, rats were placed on an elevated wire mesh (2 mm openings). Von Frey hairs (Stoelting Co., WoodDale, Ill., USA) were used to elicit a cutaneous flexion withdrawal response as described by Fitzgerald et al. (Fitzgerald M., et al., PAIN […] INFANTS, CHILDREN AND ADOLESCENTS; Schetchter and Yaster, Eds., pp 11-32, Williams and Williams (Baltimore, Md.) (1993). Von Frey hairs of increasing intensity were applied three times to the plantar surface of the left hind paw until a paw withdrawal was elicited. The lowest intensity Von Frey hair required to produce a withdrawal reflex was recorded as the response threshold to a low-intensity mechanical stimulus.
Thermal paw withdrawal latencies were measured using the Ugo Basile Plantar Testing apparatus (Stoelting Co., WoodDale, Ill., USA). Briefly, postnatal day 7 rats were placed under inverted Plexiglas enclosures and the plantar surface of the left hindpaw was heated from below with the IR intensity of the lamp set at 30. Two baseline thermal response latency measures were collected prior to morphine administration with a cut-off of 20 seconds enlisted to prevent tissue damage.
Postnatal day 7 rats were administered 1 mg/kg morphine sulfate (Sigma) subcutaneously in 50 μl saline. Mechanical thresholds were measured 15 minutes later to establish analgesia. Rats were returned to their dam. At 30 or 120 minutes post morphine, rats were administered 0.25 mg/kg naloxone (Sigma) subcutaneously in 50 μl saline. Mechanical thresholds and thermal paw withdrawal latencies were measured in 10 minute intervals. Tat conjugated peptide inhibitors specific to the ε (εV1-2; SEQ ID NO:1, 10 μM) and γ ([…]; SEQ ID NO:2, 10 μM) isoforms of PKC, Tat carrier (10 μM), or saline were administered in 5 μl volumes intrathecally via direct lumbar puncture using a sterile 29 gauge 3/10 cc insulin syringe in rats lightly anesthetized with halothane. To allow for complete recovery from anesthetic, animals were administered peptides or control solutions 30 minutes prior to naloxone.
An unpaired T-test was used to determine the significance of post-naloxone measures from baseline measures. Significance between treatment groups for PKC inhibitor studies both in vivo and in vitro was determined by one way analysis of variance (ANOVA) followed by a post-hoc Bonferroni analysis. P-values<0.05 were considered significant. All statistical analysis was done with GraphPad Prism version 3.02.

[1] = tested on: 7 day old and 21 day old rats; assay: ethanol withdrawal mechanical allodynia testing (von Frey threshold withdrawal force); format: in vivo, rat
[2] = tested on: 7 day old and 21 day old rats; assay: ethanol withdrawal thermal hyperalgesia testing (paw withdrawal latency); format: in vivo, rat; details: 7 day old rats; intrathecally 4 hours after 4 g/kg 15% EtOH
[3] = tested on: N-methyl-D-aspartate (NMDA) receptor currents; assay: alcohol withdrawal hyperresponsiveness of NMDA-evoked currents in lumbar spinal cord slice motor neurons; format: cell-based, rat
Text: Spinal cords were taken from young rats, and slices of these cords were made and placed in artificial cerebrospinal fluid for patch clamp electrophysiological analysis, to characterize the ability of γPKC peptides to mediate alcohol withdrawal hyperresponsiveness of N-methyl-D-aspartate (NMDA) receptor currents. FIG. 7A is a schematic diagram of the technique, where a lumbar spinal cord slice 10 is shown. The placement of a recording electrode 12 and a pipette 14 for application of NMDA relative to a motor neuron 16 is illustrated.
Sprague-Dawley rats at postnatal day 7-10 were anesthetized with halothane, decapitated, and the spinal cords were quickly removed. Slices […] thick were sectioned from the lumbar region. Whole cell voltage clamp recordings were made from visually-identified motor neurons using infrared video microscopy, a 60× water immersion lens, and a MultiClamp 700A patch clamp amplifier. Cells were held at a holding potential of −60 mV in artificial cerebrospinal fluid (ACSF) containing bicuculline methiodide ([…]), strychnine ([…]), and tetrodotoxin ([…]). Postsynaptic currents were evoked by direct pressure application of 2 mM N-methyl-D-aspartate (NMDA) from a pipette positioned near the recorded cell at 1-2 min intervals, as illustrated in FIG. 7A. The area of evoked currents during and following 100 mM ethanol (EtOH) application was measured and normalized to the average baseline current area during the 10 minutes preceding EtOH application. Data are expressed as mean +/−SEM: Statistical significance was determined by one-way ANOVA followed by Dunn's or Tukey's multiple comparison test with significance set at p<0.05.

`CN(C)CCCn1cc(C2=C(c3c[nH]c4ccccc34)C(=O)NC2=O)c2ccccc21` [GF109203X] was tested, and the “sVRP area 30 minutes after naloxone” value (isolated spinal cords) was 87 % of control and the “block of naloxone-precipitated withdrawal hyperresponsiveness of sVRP” value (from here on “block … of sVRP”) (isolated spinal cords) was “blocked the withdrawal hyperresponsivess”.

In the case of `C=CCN1CC[C@]23c4c5ccc(O)c4O[C@H]2C(=O)CC[C@@]3(O)[C@H]1C5` [naloxone], the “mechanical threshold and paw withdrawal latency, naloxone after morphine” value (postnatal day 7 rats; naloxone 0.25 mg/kg s.c. following 30 minutes of morphine exposure) is reported as “precipitated mechanical allodynia and thermal hyperalgesia”, the “mechanical threshold and paw withdrawal latency, naloxone alone” value (postnatal day 7 rats; no morphine) is reported as “did not alter paw withdrawal thresholds to mechanical stimulation or paw withdrawal latency to thermal stimulation” and the “sVRP area 30 minutes after naloxone” value (isolated spinal cords) is reported as 140.9 % of control.

In the case of `COc1ccc2c(c[n+](C)c3c4cc5c(cc4ccc23)OCO5)c1OC` [chelerythrine], the “sVRP area 30 minutes after naloxone” value (isolated spinal cords) is reported as 100.1 % of control, the “block … of sVRP” value (isolated spinal cords) is reported as “did block morphine withdrawal” and the “effect on the response to morphine” value (isolated spinal cords; morphine-exposed spinal cords) is reported as “did not alter the response to morphine”.

“εV1-2: εPKC antagonist peptide, SEQ ID NO:1, isozyme-specific translocation inhibitor, used Tat-conjugated (EAVSLKPT; also: Tat peptide conjugate; listed as Homo sapiens)” was tested, and the “mechanical allodynia, threshold withdrawal force” value ([1]; 7 day old rats, 5 μL of 20 μM intrathecally 5 hours after 4 g/kg 15% EtOH i.p., 6 and 7 hour post-EtOH, versus Tat carrier) was “attenuated mechanical allodynia”, the “mechanical allodynia, threshold withdrawal response” value ([1]; 21 day old rats, 10 μL of 20 μM intrathecally 4 hours after 4 g/kg 15% EtOH i.p.) was “slightly attenuated the response at 6 hours and 8 hours post ethanol injection” and the “thermal hyperalgesia, paw withdrawal latency” value [2] was “completely prevented thermal hyperalgesia”. The “block of naloxone-precipitated morphine withdrawal allodynia and hyperalgesia” value (postnatal day 7 rats) was “effective to block naloxone-precipitated morphine withdrawal allodyina and hyperalgesia”, the “effect on sVRP of inhibitor alone” value (isolated spinal cords; absence of morphine) was “did not alter the sVRP” and the “sVRP area 30 minutes after naloxone” value (isolated spinal cords) was 102 % of control. The “block … of sVRP” value (isolated spinal cords) was “blocked withdrawal hyperresponsiveness”.

With `CN1CC[C@]23c4c5ccc(O)c4O[C@H]2[C@@H](O)C=C[C@H]3[C@H]1C5` [morphine] the “paw withdrawal threshold and latency after morphine” value (postnatal day 7 rats; morphine 1 mg/kg s.c., then saline) was “exhibited profound analgesia” and the “effect of morphine on sVRP” value (isolated spinal cords; morphine 200 nM) was “depressed”.

`Cn1c2ccccc2c2c3c(c4c5ccccc5n(CCC#N)c4c21)CNC3=O` [Go6976] was tested, and the “sVRP area 30 minutes after naloxone” value (isolated spinal cords) was 127.4 % of control and the “block … of sVRP” value (isolated spinal cords) was “did not block withdrawal”.

“Tat: Tat-derived carrier peptide (Tat 47-57), control for the conjugated inhibitors” was tested, and the “block of naloxone-precipitated morphine withdrawal allodynia and hyperalgesia” value (postnatal day 7 rats) was “did not prevent allodynia and hyperalgesia”, the “block … of sVRP” value (isolated spinal cords) was “did not block the withdrawal response” and the “effect on ethanol withdrawal hyperresponsiveness of NMDA-evoked currents” value ([3]; 10 nM Tat carrier alone) was “does not prevent the symptom”.

In the case of `O=C(O)CN(CC(=O)O)c1ccccc1OCCOc1ccccc1N(CC(=O)O)CC(=O)O` [BAPTA, 1,2-bis(2-aminophenoxy)ethane-N,N,N′,N′-tetraacetic acid, reference compound], the “ethanol withdrawal hyperresponsiveness of NMDA-evoked currents with calcium chelator” value ([3]; 30 mM in recording pipette) is reported as “no ethanol-withdrawal hyperresponsiveness”.
